The subject of the assay is EAE (experimental autoimmune encephalomyelitis). Briefly: EAE semi-therapeutic vaccine study (clinical score, EAE-free mice). The class given is in vivo, C57BL/6 mice. The conditions noted are these: intravenous injection on days 4, 7 and 10 after EAE induction (semi-therapeutics). The protocol: EAE was induced in female C57BL/6 mice aged 10-11 weeks using a kit (EK-2110) from Hooke Laboratory (Lawrence, Mass., USA). Briefly, on day 0, mice were subcutaneously injected with an emulsion containing MOG35-55 peptide and complete Freund's adjuvant (CFA), in the lower and upper back. After 2 and 24 h, the animals were intraperitoneally injected with pertussis toxin (PTX) according to the manufacturer's instructions. EAE clinical score was evaluated after day 8, post-EAE induction based on the standard protocol in a blinded manner (0, no obvious symptoms; 0.5, tip of tail was limp; 1, limp tail; 1.5, limp tail and hind leg inhibition; 2, limp tail and weakness of hind legs; 2.5, limp tail and dragging of hind legs; 3, complete paralysis of hind legs; 3.5, complete paralysis of hind legs and hind legs together on one side of the body; 4, full hind leg and partial front leg paralysis; 4.5 full hind leg and partial front leg paralysis, no movement). Paralyzed mice were given easier access to water and food. Mice were euthanized if any of the following conditions were observed unable to eat, unresponsive when scored as 4, when scored as 4 for two consecutive days, both hind limbs and forelimbs were completely paralyzed. […]

The source of these data is patent US20230241190A1, “VACCINE FOR TREATING MULTIPLE SCLEROSIS” (RESEARCH & BUSINESS FOUNDATION SUNGKYUNKWAN UNIVERSITY, priority 2022, published 2023).

As for “myelin oligodendrocyte glycoprotein (MOG) peptide 35-55 [soluble MOG]”, the “EAE progression / development (clinical score)” value was “slightly delayed EAE progression”.
